Test results as given in patent US7504226B2, “Methods relating to treatment of atherosclerosis” (Cambridge Theranostics Ltd., priority 2001, dated 2009).
Values joined by “and” are separate entries in the source; they are usually repeats but may differ in a detail not shown here. Equal values may be shown once. “Also recorded” adds a separate entry of the source. Read-outs that look alike come from different tables or passages of the source. Marks after values point to notes of the source that are not given here.

Tests used:
anti-Chlamydia abzymes [1] = format: biochemical, human; set-up: key to In-vitro Inhibition: + = inhibition; − = no inhibition; settings: for In-vitro Inhibition: abzyme activity, metal chelators; for Anti-Abzyme activity: control 21.7
anti-Chlamydia abzymes [2] = format: in vivo, human; settings: for Anti-Chlamydia abzyme activity: individual patients (last line: mean); for individuals positive for abzymes / individuals positive for abzymes (fraction) / abzyme activity of individuals reporting taking aspirin: + aspirin; for Anti-Chlamydia abzymes activity: Table 27 group summary
anti-Chlamydia IgG = format: in vivo, human; settings: immuno-fluorescent assay, group summary
[3] = tested on: patients with ischaemic heart disease; assay: Severity of angina pectoris by modified Rose-Blackburn Questionnaire; format: in vivo, human; set-up: Score by modified Rose-Blackburn Questionnaire / Rose Blackthorn Score Day 0: scale not given here; settings: for Score by modified Rose-Blackburn Questionnaire: individual patients (last line of each group: mean)
Excerpt: The progression of the clinical condition of the patients was monitored by the use of the modified Bruce Protocol for treadmill exercise/stress ECG testing and on the Rose-Blackburn Questionnaire (Cardiovascular Survey Methods. WHO, Geneva, 1968).

patients with angina = assay: Clinical condition of angina patients treated with anti-microbial agent; format: in vivo, human; settings: for Clinical condition: individual patients; for tablets of nitroglycerine daily: patient 5
[4] = human, in vivo
lesion IgG = format: biochemical, human
anti-Chlamydia abzymes [5] = format: biochemical, human
[6] = IHD patients negative for anti-Chlamydia IgG, individual patients
[7] = Chlamydia treated with 1% detergents or 10% solution of DMSO

In the case of `CC(=O)Oc1ccccc1C(=O)O` [Aspirin, acetylsalicylic acid], the “Result (inhibition of abzymes)” value (anti-Chlamydia abzymes [1]; 10 μM of each agent) is reported as “Positive”, the “In-vitro Inhibition” value (anti-Chlamydia abzymes [1]) is reported as “+” and the Anti-Chlamydia abzyme activity (anti-Chlamydia abzymes [2]; Therapy Group D, IHD, aspirin 250 mg daily, before treatment) is reported as 103 μM MDA/ml and 253 μM MDA/ml and 178 μM MDA/ml. For the same compound, the Anti-Chlamydia abzyme activity (anti-Chlamydia abzymes [2]; Therapy Group D, 60 days after the start of treatment) was 63 μM MDA/ml and 103 μM MDA/ml and 83.2 μM MDA/ml, the “Level of activity of anti-Chlamydia abzymes” value (anti-Chlamydia abzymes [2]; individual CHD patients, 7 days after starting to take 250 mg of aspirin daily) was “undetectably low level and 20 μM MDA/ml and 0 μM MDA/ml” and the “Level of activity of anti-Chlamydia abzymes” value (anti-Chlamydia abzymes [2]; individual CHD patients, before taking aspirin) was 100 μM MDA/ml and 45 μM MDA/ml (2×). For the same compound, the “inhibition of the abzyme activity” value (anti-Chlamydia abzymes [2]; one CHD patient, after a week of 250 mg daily) was 5 fold, the “Level of activity of anti-Chlamydia abzymes” value (anti-Chlamydia abzymes [2]; patient F, Silent Myocardial Ischaemia, aspirin intake 250 mg daily) was 10 μM MDA/ml and the “Level of activity of anti-Chlamydia abzymes” value (anti-Chlamydia abzymes [2]; patient F, 7 days after re-starting to take 250 mg aspirin daily) was 20 μM MDA/ml. The “Level of activity of anti-Chlamydia abzymes” value (anti-Chlamydia abzymes [2]; patient F, after stopping taking aspirin for 7 days) was 65 μM MDA/ml, the “individuals positive for abzymes” value (anti-Chlamydia abzymes [2]; stable angina class I) was 17% and the “individuals positive for abzymes (fraction)” value (anti-Chlamydia abzymes [2]; stable angina class I) was 1/6. The “abzyme activity of individuals reporting taking aspirin” value (anti-Chlamydia abzymes [2]; stable angina class I, individuals (r25: mean, n = 6)) was 0 (3×) and 10 and 10.0 and 5 and 45, the “individuals positive for abzymes” value (anti-Chlamydia abzymes [2]; stable angina class II) was 27% and the “individuals positive for abzymes (fraction)” value (anti-Chlamydia abzymes [2]; stable angina class II) was 4/15. The “abzyme activity of individuals reporting taking aspirin” value (anti-Chlamydia abzymes [2]; stable angina class II, individuals (r25: mean, n = 15)) was 10 (2×) and 0 (4×) and 5 (4×) and 25 and 22.5 and 3.3 and 16.7 and 9.2 and 30, the “individuals positive for abzymes” value (anti-Chlamydia abzymes [2]; stable angina class III) was 60% and the “individuals positive for abzymes (fraction)” value (anti-Chlamydia abzymes [2]; stable angina class III) was 6/10. For the same compound, the “abzyme activity of individuals reporting taking aspirin” value (anti-Chlamydia abzymes [2]; stable angina class III, individuals (r25: mean, n = 10)) was 0 (3×) and 5 and 35 and 15 and 30 and 105 and 25.5 and 20 and 45, the “individuals positive for abzymes” value (anti-Chlamydia abzymes [2]; unstable angina IV) was 86% and the “individuals positive for abzymes (fraction)” value (anti-Chlamydia abzymes [2]; unstable angina IV) was 6/7. For the same compound, the “abzyme activity of individuals reporting taking aspirin” value (anti-Chlamydia abzymes [2]; unstable angina IV, individuals (r25: mean, n = 7)) was 0 and 37 and 90 and 100 and 86.7 and 180 and 130 and 70.
With `CC[C@H]1OC(=O)[C@H](C)[C@@H](O[C@H]2C[C@@](C)(OC)[C@@H](O)[C@H](C)O2)[C@H](C)[C@@H](O[C@@H]2O[C@H](C)C[C@H](N(C)C)[C@H]2O)[C@](C)(O)C[C@@H](C)CN(C)[C@H](C)[C@@H](O)[C@]1(C)O` [Azithromycin] the “Abzyme activity Day 0” value (anti-Chlamydia abzymes [2]; [6]) was 15 and 90 and 80 and 40, the “Abzyme activity Day 60” value (anti-Chlamydia abzymes [2]; [6]) was 6.7 (2×) and 3.3 and 0 and the Anti-Chlamydia abzyme activity (anti-Chlamydia abzymes [2]; Table 15, 15 days after the start of the treatment) was 60 μM MDA/ml and 0 μM MDA/ml (3×) and 8.3 μM MDA/ml and 6.7 μM MDA/ml (3×) and 33 μM MDA/ml and 75 μM MDA/ml and 19.6 μM MDA/ml. For the same compound, the Anti-Chlamydia abzyme activity (anti-Chlamydia abzymes [2]; Table 15, 30 days after the start of the treatment) was 37 μM MDA/ml and 0 μM MDA/ml (3×) and 28 μM MDA/ml and 3.3 μM MDA/ml (2×) and 10 μM MDA/ml and 78 μM MDA/ml and 17.7 μM MDA/ml, the Anti-Chlamydia abzyme activity (anti-Chlamydia abzymes [2]; Table 15, stable angina, 500 mg once per day, before treatment) was 40 μM MDA/ml (2×) and 50 μM MDA/ml and 15 μM MDA/ml and 10 μM MDA/ml and 35 μM MDA/ml and 85 μM MDA/ml and 30 μM MDA/ml (2×) and 45.9 μM MDA/ml and 90 μM MDA/ml and 80 μM MDA/ml and the Anti-Chlamydia abzymes activity (anti-Chlamydia abzymes [2]; 60 days after treatment) was 1.6 ± 0.89 ^ μM/MDA/ml. The Anti-Chlamydia abzymes activity (anti-Chlamydia abzymes [2]; before treatment) was 47.5 ± 8.96 μM/MDA/ml, the Anti-Chlamydia abzyme activity (anti-Chlamydia abzymes [2]; Therapy Group A, IHD, 500 mg daily, before treatment) was 90 μM MDA/ml and 80 μM MDA/ml and 40 μM MDA/ml (2×) and 50 μM MDA/ml and 15 μM MDA/ml and 28 μM MDA/ml and 35 μM MDA/ml and 85 μM MDA/ml and 30 μM MDA/ml (2×) and 47.5 μM MDA/ml and the Anti-Chlamydia abzyme activity (anti-Chlamydia abzymes [2]; Therapy Group A, 15 days after the start of treatment) was 6.7 μM MDA/ml (3×) and 0 μM MDA/ml (3×) and 60* μM MDA/ml and 8.3 μM MDA/ml and 33 μM MDA/ml and 75* μM MDA/ml and 52* μM MDA/ml and 22.5 μM MDA/ml. For the same compound, the Anti-Chlamydia abzyme activity (anti-Chlamydia abzymes [2]; Therapy Group A, 30 days after the start of treatment) was 78** μM MDA/ml and 0 μM MDA/ml (3×) and 37* μM MDA/ml and 28** μM MDA/ml and 3.3 μM MDA/ml (2×) and 10 μM MDA/ml (2×) and 78* μM MDA/ml and 22.5 μM MDA/ml, the Anti-Chlamydia abzyme activity (anti-Chlamydia abzymes [2]; Therapy Group A, 45 days after the start of treatment) was 17 μM MDA/ml and 0 μM MDA/ml (5×) and 20* μM MDA/ml and 43* μM MDA/ml and 3.3 μM MDA/ml (2×) and 5.0 μM MDA/ml and 7.4 μM MDA/ml and the Anti-Chlamydia abzyme activity (anti-Chlamydia abzymes [2]; Therapy Group A, 60 days after the start of treatment) was 3.3 μM MDA/ml and 6.7 μM MDA/ml (2×) and 0 μM MDA/ml (7×) and 0.5 μM MDA/ml and 1.6 μM MDA/ml. The “Anti-Chlamydia IgG” value (anti-Chlamydia IgG; 60 days after treatment) was 0 (titers)^−1, the “Anti-Chlamydia IgG” value (anti-Chlamydia IgG; before treatment) was 43.6 (titers)^−1 and the “Rose Blackthorn Score Day 0” value [3, 6] was 21 and 22 and 12 and 19. For the same compound, the “Clinical Status modified Rose G., Blackburn H. Questionnaire” value ([3]; group summary, before treatment) was 19.4 ± 1.79, the “Score by modified Rose-Blackburn Questionnaire” value ([3]; 60 days after start of the treatment) was 19 and 10 and 13 and 16 and 18 and 15 (2×) and 8 and 11 and 17 (2×) and the “Score by modified Rose-Blackburn Questionnaire” value ([3]; before treatment) was 22 and 12 and 19 and 23 and 21 and 25 (3×) and 16 and 10 and 15 and 19.4 ± 1.79. The Clinical condition (patients with angina; after 15 days of treatment) was “angina class II;; also recorded: Stable condition;”, the Clinical condition (patients with angina; before treatment) was “angina class III;; also recorded: Unstable angina;” and the “tablets of nitroglycerine daily” value (patients with angina; after 15 days of treatment) was 5 tablets of nitroglycerine. The “tablets of nitroglycerine daily” value (patients with angina; before treatment) was 10 tablets of and the adverse reactions [4] was “No adverse reactions”.
With `C[S+](C)[O-]` [DMSO] the “Level of MDA production by 0.82 μg of lesion IgG” value (“Level of MDA production” below) (lesion IgG; LDL 480 μg of protein, +1% agent, control 0.49 ± 0.023) was 0 µM and the “development of lipid oxidation reaction” value (anti-Chlamydia abzymes [5]; [7]) was “completely abrogated”.
With `O=C(O)CN(CCN(CC(=O)O)CC(=O)O)CCN(CC(=O)O)CC(=O)O` [DTPA] the “Result (inhibition of abzymes)” value (anti-Chlamydia abzymes [1]; 10 μM of each agent) was “Negative” and the “In-vitro Inhibition” value (anti-Chlamydia abzymes [1]) was “−”.
`O=[N+]([O-])OCC(CO[N+](=O)[O-])O[N+](=O)[O-]` [Glyceryl Trinitrate] gave an Anti-Abzyme activity (anti-Chlamydia abzymes [1]; 4.4 μM) of 0 μM MDA/ml, an Anti-Abzyme activity (anti-Chlamydia abzymes [1]; 22 μM) of 0 μM MDA/ml and an Anti-Abzyme activity (anti-Chlamydia abzymes [1]; 44 μM) of 0 μM MDA/ml. The Anti-Abzyme activity (anti-Chlamydia abzymes [1]; 220 μM) was 0 μM MDA/ml.
In the case of `O=[N+]([O-])O[C@H]1CO[C@H]2[C@@H]1OC[C@H]2O[N+](=O)[O-]` [Isosorbide Dinitrate], the Anti-Abzyme activity (anti-Chlamydia abzymes [1]; 42 μM) is reported as 0 μM MDA/ml and the Anti-Abzyme activity (anti-Chlamydia abzymes [1]; 211 μM) is reported as 0 μM MDA/ml.
With `[N-]=[N+]=[N-].[Na+]` [NaN3] the “Result (inhibition of abzymes)” value (anti-Chlamydia abzymes [1]) was “Positive”.
For `CC(C)(S)[C@@H](N)C(=O)O` [Penicillamine], the “Result (inhibition of abzymes)” value (anti-Chlamydia abzymes [1]; 10 μM of each agent) was “Positive” and the “In-vitro Inhibition” value (anti-Chlamydia abzymes [1]) was “+”.
With `O=C(O)c1ccccn1` [Picolinic acid] the “Result (inhibition of abzymes)” value (anti-Chlamydia abzymes [1]; 10 μM of each agent) was “Positive” and the “In-vitro Inhibition” value (anti-Chlamydia abzymes [1]) was “+”.
For `CCCCCCCCCCCCOS(=O)(=O)[O-].[Na+]` [SDS], the “lipid oxidising reaction in the test system” value (“lipid oxidising reaction” for short) (anti-Chlamydia abzymes [5]) was “no lipid oxidising reaction”.
In the case of `N.N.O=S(=O)(O)O` [ammonium sulphate], the “lipid oxidising reaction” value (anti-Chlamydia abzymes [5]) is reported as “no lipid oxidising reaction”.
In the case of `O=C(O)c1ccccc1` [benzoic acid], the “Level of MDA production” value (lesion IgG) is reported as 0 µM.
In the case of `C=O` [formalin], the “lipid oxidising reaction” value (anti-Chlamydia abzymes [5]) is reported as “no lipid oxidising reaction”.
For `O=C[O-].[Na+]` [sodium formate], the “Level of MDA production” value (lesion IgG; LDL 480 μg of protein, +0.1 M agent, control 0.49 ± 0.023) was 0 µM.
For “octylphenoxypoly(ethyleneoxy)ethanol [IGEPAL CA-630]”, the “development of lipid oxidation reaction” value (anti-Chlamydia abzymes [5]; [7]) was “completely abrogated” and the “oxidation of the lipids in the bacteria by the extracted abzymes” value (anti-Chlamydia abzymes [5]; Chlamydia treated with non-ionic detergent) was “abolished”.
With “polyoxyethylene Octyl phenyl ether [TRITON X-100]” the “development of lipid oxidation reaction” value (anti-Chlamydia abzymes [5]) was “completely abrogated” and the “oxidation of the lipids in the bacteria by the extracted abzymes” value (anti-Chlamydia abzymes [5]) was “abolished”.
